From PubChem BioAssay (NCI)
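Tested at 5 concentrations; 48 h exposure; 96-well plates; endpoints linearly interpolated, else capped at highest concentration. GI50 is the concentration that inhibits growth by half. TGI denotes the concentration required for complete inhibition of growth.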

Legend:
Assay in all cases: inhibition of tumour cell growth, NCI panel, 48 h
HOP-62 NSCLC = system: HOP-62 NSCLC
RPMI-8226 leukemia = system: RPMI-8226 leukemia
HS 578T breast = system: HS 578T breast
SW-620 colon = system: SW-620 colon
BT-549 breast = system: BT-549 breast
K-562 leukemia = system: K-562 leukemia
HCC-2998 colon = system: HCC-2998 colon
786-0 renal = system: 786-0 renal
ACHN renal = system: ACHN renal

With `O=C1CSC(c2cccc(Cl)c2)N1c1ccc(-c2ccc(-n3c(-c4ccccc4)nc4ccccc4c3=O)cc2)cc1` (stereo not drawn) the TGI (HOP-62 NSCLC) was over 100 µM, the TGI (RPMI-8226 leukemia) was over 100 µM and the TGI (HS 578T breast) was over 100 µM. It also gave a TGI (SW-620 colon) of over 100 µM, a TGI (BT-549 breast) of 80.3 µM and a TGI (K-562 leukemia) of over 100 µM. For the same compound, the TGI (HCC-2998 colon) was over 100 µM, the TGI (786-0 renal) was over 100 µM and the TGI (ACHN renal) was over 100 µM.

Work on `CCCCCCCCCCCCCC[n+]1ccc(C)cc1` yielded a GI50 (HOP-62 NSCLC) of 1.27 µM, a TGI (HOP-62 NSCLC) of 2.61 µM and a GI50 (RPMI-8226 leukemia) of 0.426 µM. The TGI (RPMI-8226 leukemia) was 2.37 µM, the GI50 (HS 578T breast) was 2.39 µM and the TGI (HS 578T breast) was 8.8 µM. It also gave a GI50 (SW-620 colon) of 0.945 µM, a TGI (SW-620 colon) of 3.88 µM and a GI50 (K-562 leukemia) of 0.309 µM. The TGI (K-562 leukemia) was 3.73 µM, the GI50 (HCC-2998 colon) was 0.708 µM and the TGI (HCC-2998 colon) was 2.04 µM. The GI50 (ACHN renal) was 3.23 µM and the TGI (ACHN renal) was 10.9 µM.

For `COc1cc2c(/C=C3/C(=O)Nc4ccc(Cl)cc43)c(Cl)[nH]c2cc1C`, the TGI (HOP-62 NSCLC) was 13.7 µM, the TGI (RPMI-8226 leukemia) was 5.13 µM and the TGI (HS 578T breast) was 19 µM. It also gave a TGI (SW-620 colon) of 19.7 µM, a TGI (BT-549 breast) of 1.08 µM and a TGI (K-562 leukemia) of 6.3 µM. It also gave a TGI (786-0 renal) of 15.4 µM and a TGI (ACHN renal) of 10.8 µM.

`O=C(O)c1nc2ccc(C(F)(F)F)cc2nc1Nc1ccc(F)cc1` was tested, and the TGI (HOP-62 NSCLC) was 34.7 µM, the TGI (HS 578T breast) was 96.4 µM and the TGI (SW-620 colon) was 82.2 µM. For the same compound, the TGI (BT-549 breast) was 44.2 µM, the TGI (K-562 leukemia) was 43.4 µM and the TGI (HCC-2998 colon) was 34.3 µM. It also gave a TGI (786-0 renal) of 54.5 µM and a TGI (ACHN renal) of over 100 µM.

With `CCCCOP(C)(=O)C(NC(=O)OCC)(C(F)(F)F)C(F)(F)F` (stereo not drawn) the TGI (HOP-62 NSCLC) was over 100 µM, the TGI (RPMI-8226 leukemia) was over 100 µM and the TGI (HS 578T breast) was over 100 µM. For the same compound, the TGI (SW-620 colon) was over 100 µM, the TGI (BT-549 breast) was over 100 µM and the TGI (K-562 leukemia) was over 100 µM. It also gave a TGI (HCC-2998 colon) of over 100 µM and a TGI (ACHN renal) of over 100 µM.

In the case of `O=C(Cn1c(C(=O)c2ccccc2)nc2ccccc21)c1ccccc1`, the TGI (HOP-62 NSCLC) is reported as over 100 µM, the TGI (RPMI-8226 leukemia) is reported as over 100 µM and the TGI (HS 578T breast) is reported as over 100 µM. The TGI (SW-620 colon) was over 100 µM, the TGI (BT-549 breast) was over 100 µM and the TGI (HCC-2998 colon) was over 100 µM. The TGI (786-0 renal) was over 100 µM and the TGI (ACHN renal) was over 100 µM.

`C#CC(O)/C=C/CCCCCCC#CC/C=C\CC#CCCCCCCCCC(O)C#C` (stereo not drawn) gave a TGI (HOP-62 NSCLC) of 12 µM, a TGI (HS 578T breast) of 38.3 µM and a TGI (SW-620 colon) of 14.2 µM. It also gave a TGI (BT-549 breast) of 20.4 µM, a TGI (K-562 leukemia) of over 21.6 µM and a TGI (HCC-2998 colon) of 9.8 µM. The TGI (786-0 renal) was 5.01 µM and the TGI (ACHN renal) was 29.5 µM.

Compound `Cn1cc(S(=O)(=O)NC(=O)Nc2ccc(Cl)cc2)c(=O)c2ccc(F)cc21` has a TGI (HOP-62 NSCLC) of over 100 µM, a TGI (RPMI-8226 leukemia) of over 100 µM and a TGI (HS 578T breast) of over 100 µM. For the same compound, the TGI (SW-620 colon) was over 100 µM, the TGI (K-562 leukemia) was over 100 µM and the TGI (HCC-2998 colon) was over 100 µM. For the same compound, the TGI (786-0 renal) was over 100 µM and the TGI (ACHN renal) was over 100 µM.

`CCOC(=O)C1(C#N)CC1` was tested, and the TGI (HOP-62 NSCLC) was over 100 µM, the TGI (HS 578T breast) was over 100 µM and the TGI (SW-620 colon) was over 100 µM. It also gave a TGI (BT-549 breast) of over 100 µM, a TGI (K-562 leukemia) of over 100 µM and a TGI (HCC-2998 colon) of over 100 µM. The TGI (786-0 renal) was over 100 µM and the TGI (ACHN renal) was over 100 µM.

With `[N-]=[N+]=CC(=O)OCCCCl` the TGI (HOP-62 NSCLC) was over 100 µM, the TGI (RPMI-8226 leukemia) was over 100 µM and the TGI (SW-620 colon) was over 100 µM. The TGI (BT-549 breast) was over 100 µM, the TGI (HCC-2998 colon) was over 100 µM and the TGI (786-0 renal) was over 100 µM. The TGI (ACHN renal) was over 100 µM.

`C[C@@H]1CC(=O)C[C@@H]2CC[C@H]3[C@@H]4CC[C@H](OC(=O)c5cccc6cc7ccccc7nc56)[C@H]4CC[C@@H]3[C@H]21` gave a TGI (HOP-62 NSCLC) of 52.3 µM, a TGI (HS 578T breast) of over 100 µM and a TGI (SW-620 colon) of 44.2 µM. The TGI (BT-549 breast) was 59.1 µM, the TGI (K-562 leukemia) was 38 µM and the TGI (786-0 renal) was 23.5 µM. It also gave a TGI (ACHN renal) of 29.3 µM.
